# Measured values reported in patent publication US8309734B2 (Hoffmann-La Roche Inc., priority 2008, dated 2012).
# Target: T1, human GPBAR1 receptor (Homo sapiens, UniProt Q8TDU6)
# T1 construct: expressed in transfected cells
# T1 sequence (Q8TDU6 1-330): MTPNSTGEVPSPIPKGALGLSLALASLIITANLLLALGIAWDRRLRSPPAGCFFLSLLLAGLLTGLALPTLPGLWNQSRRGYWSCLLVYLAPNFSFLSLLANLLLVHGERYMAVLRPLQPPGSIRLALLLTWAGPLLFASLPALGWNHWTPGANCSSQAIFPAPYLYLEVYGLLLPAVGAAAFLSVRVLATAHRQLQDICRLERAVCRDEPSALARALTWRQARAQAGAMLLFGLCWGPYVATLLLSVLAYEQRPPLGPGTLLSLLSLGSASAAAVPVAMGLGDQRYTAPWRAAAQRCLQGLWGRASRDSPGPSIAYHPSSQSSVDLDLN
# Assay: functional cAMP assay in CHO-dhfr(minus) cells expressing human GPBAR1 receptors
# Format: cell-based
# Details: cAMP increase (TR-FRET) in CHO-dhfr(minus) cells expressing human GPBAR1; compounds incubated 30 min at 30° C.
row,SMILES,EC50
1,"Cc1cccc(N(C)C(=O)c2cccnc2Oc2cc(Cl)ccc2Cl)c1C [Example 57, 2-(2,5-Dichloro-phenoxy)-N-(2,3-dimethyl-phenyl)-N-methyl-nicotinamide]",385 nM
2,"O=C(c1cc(F)cnc1Oc1cc(Cl)ccc1Cl)N1CCN(Cc2ccoc2)c2ccccc21 [Example 151, [2-(2,5-Dichloro-phenoxy)-5-fluoro-pyridin-3-yl]-(4-furan-3-ylmethyl-3,4-dihydro-2H-quinoxalin-1-yl)-methanone]",1070 nM
3,"Cc1cc(F)c2c(c1)CCCN2C(=O)c1ccccc1Oc1cc(Cl)ccc1Cl [Example 120, [2-(2,5-Dichloro-phenoxy)-phenyl]-(8-fluoro-6-methyl-3,4-dihydro-2H-quinolin-1-yl)-methanone]",1650 nM
4,"O=C(c1cccnc1Oc1cc(Cl)ccc1Cl)N1CCN(c2ccccc2)c2ccccc21 [Example 74, [2-(2,5-Dichloro-phenoxy)-pyridin-3-yl]-(4-phenyl-3,4-dihydro-2H-quinoxalin-1-yl)-methanone]",1530 nM
5,"CC(CN1CCN(C(=O)c2cc(F)cnc2Oc2cc(Cl)ccc2Cl)c2ccccc21)C(=O)O (stereo not shown) [Example 157, 3-{4-[2-(2,5-Dichloro-phenoxy)-5-fluoro-pyridine-3-carbonyl]-3,4-dihydro-2H-quinoxalin-1-yl}-2-methyl-propionic acid]",1680 nM
6,"Cc1cc(Cl)ccc1N(C)C(=O)c1cccnc1Oc1cc(Cl)ccc1Cl [Example 56, N-(4-Chloro-2-methyl-phenyl)-2-(2,5-dichloro-phenoxy)-N-methyl-nicotinamide]",1390 nM
7,"COc1ncccc1N(C)C(=O)c1ccncc1Oc1ccc(Cl)cc1Cl [Example 102, 3-(2,4-Dichloro-phenoxy)-N-(2-methoxy-pyridin-3-yl)-N-methyl-isonicotinamide]",703 nM
8,"CCOC(=O)CN1CCN(C(=O)c2cccnc2Oc2cc(Cl)ccc2Cl)c2ccccc21 [Example 141, {4-[2-(2,5-Dichloro-phenoxy)-pyridine-3-carbonyl]-3,4-dihydro-2H-quinoxalin-1-yl}-acetic acid ethyl ester]",324 nM
9,"O=C(c1ccccc1)c1cccc(Oc2ncccc2C(=O)N2CCCc3ccccc32)c1 [Example 15, [2-(3-Benzoyl-phenoxy)-pyridin-3-yl]-(3,4-dihydro-2H-quinolin-1-yl)-methanone]",1690 nM
10,"O=C(c1cccnc1Oc1cccc(Cl)c1)N1CCOc2ccccc21 [Example 30, [2-(3-Chloro-phenoxy)-pyridin-3-yl]-(2,3-dihydro-benzo[1,4]oxazin-4-yl)-methanone]",436 nM
11,"Cc1cccc2c1N(C(=O)c1cc(F)ccc1Oc1cc(Cl)ccc1Cl)CCC2 [Example 115, [2-(2,5-Dichloro-phenoxy)-5-fluoro-phenyl]-(8-methyl-3,4-dihydro-2H-quinolin-1-yl)-methanone]",920 nM
12,"COc1cccc2c1N(C(=O)c1cccnc1Oc1cc(Cl)ccc1Cl)CCC2 [Example 70, [2-(2,5-Dichloro-phenoxy)-pyridin-3-yl]-(8-methoxy-3,4-dihydro-2H-quinolin-1-yl)-methanone]",561 nM
13,"O=C1CCCN(C(=O)c2cc(F)cnc2Oc2cc(Cl)ccc2Cl)c2ccccc21 [Example 82, 1-[2-(2,5-Dichloro-phenoxy)-5-fluoro-pyridine-3-carbonyl]-1,2,3,4-tetrahydro-benzo[b]azepin-5-one]",1270 nM
14,"COC(=O)CCCCCN1CCN(C(=O)c2cc(F)cnc2Oc2cc(Cl)ccc2Cl)c2ccccc21 [Example 160, 6-{4-[2-(2,5-Dichloro-phenoxy)-5-fluoro-pyridine-3-carbonyl]-3,4-dihydro-2H-quinoxalin-1-yl}-hexanoic acid methyl ester]",724 nM
15,"O=C(c1cccnc1Oc1ccc(Cl)cc1Cl)N1CCCc2ccccc21 [Example 76, [2-(2,4-Dichloro-phenoxy)-pyridin-3-yl]-(3,4-dihydro-2H-quinolin-1-yl)-methanone]",1960 nM
16,"O=C(O)C/C=C/c1cc(Cl)c(Oc2ncccc2C(=O)N2CCN(C3CC3)c3ccccc32)cc1Cl [Example 175, 4-{2,5-Dichloro-4-[3-(4-cyclopropyl-3,4-dihydro-2H-quinoxaline-1-carbonyl)-pyridin-2-yloxyl]-phenyl}-but-3-enoic acid]",843 nM
17,"O=C(c1cccnc1Oc1cc(Cl)ccc1Cl)N1CCCc2cc(Cl)ccc21 [Example 71, (6-Chloro-3,4-dihydro-2H-quinolin-1-yl)-[2-(2,5-dichloro-phenoxy)-pyridin-3-yl]-methanone]",436 nM
18,"Cc1cc(F)c2c(c1)CCCN2C(=O)c1cccnc1Oc1cc(Cl)ccc1Cl [Example 68, [2-(2,5-Dichloro-phenoxy)-pyridin-3-yl]-(8-fluoro-6-methyl-3,4-dihydro-2H-quinolin-1-yl)-methanone]",837 nM
19,"O=C1CCN(C(=O)c2cccnc2Oc2cc(Cl)ccc2Cl)c2ccccc21 [Example 128, 1-[2-(2,5-Dichloro-phenoxy)-pyridine-3-carbonyl]-2,3-dihydro-1H-quinolin-4-one]",918 nM
20,"Cc1ccc2c(c1)CCCN2C(=O)c1cc(F)ccc1Oc1cc(Cl)ccc1Cl [Example 116, [2-(2,5-Dichloro-phenoxy)-5-fluoro-phenyl]-(6-methyl-3,4-dihydro-2H-quinolin-1-yl)-methanone]",1160 nM
21,"O=C(c1cccnc1Oc1cc(Cl)c(Cl)cc1Cl)N1CCCc2ccccc21 [Example 14, (3,4-Dihydro-2H-quinolin-1-yl)-[2-(2,4,5-trichloro-phenoxy)-pyridin-3-yl]-methanone]",236 nM
22,"O=C(c1cccnc1Oc1cccc(C(F)(F)F)c1)N1CCCc2ccccc21 [Example 1, (3,4-Dihydro-2H-quinolin-1-yl)-[2-(3-trifluoromethyl-phenoxy)-pyridin-3-yl]-methanone]",396 nM
23,"COC(=O)C1CCN(C(=O)c2cc(F)cnc2Oc2cc(Cl)ccc2Cl)c2ccccc21 (stereo not shown) [Example 148, 1-[2-(2,5-Dichloro-phenoxy)-5-fluoro-pyridine-3-carbonyl]-1,2,3,4-tetrahydro-quinoline-4-carboxylic acid methyl ester]",1960 nM
24,"CN(C(=O)c1cccnc1Oc1cc(Cl)ccc1Cl)c1cnccc1Cl [Example 47, N-(4-Chloro-pyridin-3-yl)-2-(2,5-dichloro-phenoxy)-N-methyl-nicotinamide]",1250 nM

# The remaining molecules from weak to strong by EC50, led by results:
row,EC50,SMILES
1,231 nM,"O=C(c1ccccc1Oc1cc(Cl)ccc1Cl)N1CCCc2cc(F)cc(F)c21 [Example 121, [2-(2,5-Dichloro-phenoxy)-phenyl]-(6,8-difluoro-3,4-dihydro-2H-quinolin-1-yl)-methanone]"
2,231 nM,"O=C(c1cc(F)cnc1Oc1cccc(Cl)c1)N1CCCc2cc(F)c(F)cc21 [Example 85, [2-(3-Chloro-phenoxy)-5-fluoro-pyridin-3-yl]-(6,7-difluoro-3,4-dihydro-2H-quinolin-1-yl)-methanone]"
3,217 nM,"O=C(c1ccncc1Oc1ccc(Cl)cc1Cl)N1CCCc2cc(F)cc(F)c21 [Example 98, [3-(2,4-Dichloro-phenoxy)-pyridin-4-yl]-(6,8-difluoro-3,4-dihydro-2H-quinolin-1-yl)-methanone]"
4,173 nM,"Cc1c(Cl)cccc1N(C)C(=O)c1cccnc1Oc1cc(Cl)ccc1Cl [Example 49, N-(3-Chloro-2-methyl-phenyl)-2-(2,5-dichloro-phenoxy)-N-methyl-nicotinamide]"
5,163 nM,"O=C(c1cccnc1Oc1cc(Cl)ccc1Cl)N1CCOc2ccc(F)cc21 [Example 72, [2-(2,5-Dichloro-phenoxy)-pyridin-3-yl]-(6-fluoro-2,3-dihydro-benzo[1,4]oxazin-4-yl)-methanone]"
6,144 nM,"O=C(c1ccc(C(F)(F)F)nc1Oc1cc(Cl)ccc1Cl)N1CCCc2ccccc21 [Example 29, [2-(2,5-Dichloro-phenoxy)-6-trifluoromethyl-pyridin-3-yl]-(3,4-dihydro-2H-quinolin-1-yl)-methanone]"
7,127 nM,"O=C(O)c1ccc(CCc2cc(Cl)c(Oc3ncccc3C(=O)N3CCN(C4CC4)c4ccccc43)cc2Cl)cc1Cl [Example 169, 2-Chloro-4-(2-{2,5-dichloro-4-[3-(4-cyclopropyl-3,4-dihydro-2H-quinoxaline-1-carbonyl)-pyridin-2-yloxy]-phenyl}-ethyl)-benzoic acid]"
8,96 nM,"O=C(c1cc(F)cnc1Oc1ccc(F)c(Cl)c1)N1CCCc2ccccc21 [Example 86, [2-(3-Chloro-4-fluoro-phenoxy)-5-fluoro-pyridin-3-yl]-(3,4-dihydro-2H-quinolin-1-yl)-methanone]"
9,66 nM,"CSc1ccccc1N(C)C(=O)c1cccnc1Oc1cc(Cl)ccc1Cl [Example 132, 2-(2,5-Dichloro-phenoxy)-N-methyl-N-(2-methylsulfanyl-phenyl)-nicotinamide]"
10,58 nM,"O=C(c1cccnc1Oc1cc(Cl)ccc1Cl)N1CCCc2ccc(F)cc21 [Example 34, [2-(2,5-Dichloro-phenoxy)-pyridin-3-yl]-(7-fluoro-3,4-dihydro-2H-quinolin-1-yl)-methanone]"
11,22 nM,"O=C(c1ccccc1Oc1cc(Cl)ccc1Cl)N1CCN(C2CC2)c2ccccc21 [Example 184, (4-Cyclopropyl-3,4-dihydro-2H-quinoxalin-1-yl)-[2-(2,5-dichloro-phenoxy)-phenyl]-methanone]"
12,15 nM,"O=C(c1ccncc1Oc1cc(Cl)ccc1Cl)N1CCCc2cc(F)ccc21 [Example 91, [3-(2,5-Dichloro-phenoxy)-pyridin-4-yl]-(6-fluoro-3,4-dihydro-2H-quinolin-1-yl)-methanone]"
13,15 nM,"O=C(c1cc(F)cnc1Oc1cc(Cl)ccc1Cl)N1CCNc2ccccc21 [Example 147, [2-(2,5-Dichloro-phenoxy)-5-fluoro-pyridin-3-yl]-(3,4-dihydro-2H-quinoxalin-1-yl)-methanone]"
